Measured values as given in patent publication US5626864A, “Preparation of colloidal aqueous solutions of active substances of low solubility” (priority 1993, dated 1997).
In brackets after ≈: the same amount, converted by molar mass. Counter-ions that a name gives are not always drawn. Like-named read-outs stand apart in the source and are kept apart here.

How the values were obtained:
[1] = Sterile filtration through a 0.2 μm filter (criterion for successful solubilization); format: physicochemical
Method: The following examples illustrate the invention. The criterion for successful solubilization is the possibility of sterile filtration through a 0.2 μm filter.
(§1) 40 mg of Z were dissolved in 10 ml of dichloromethane/methanol (9+1). All the solvent was removed again from the solution in a rotary evaporator under reduced pressure. 8 ml of a buffer solution (consisting of o-phsophoric acid [0.01 M] and sucrose [0.265 M] and EDTA disodium salt [0.1 mg/ml], pH about 1.9) were added to the residue, and the flask was rotated on the rotary evaporator (without reducing the pressure) with the water at 50° C for 1 h. […] Cooling to room temperature was followed by titration with 2 molar sodium hydroxide solution to pH 6.8, and the total volume was then made up to 10 ml with the abovementioned buffer solution (pH 6.8; titrated with NaOH). […] The clear supernatant was filtered through a 0.2 micrometer syringe filter, and the active substance concentration in this solution was determined by spectrophotometry.
(§2) The experiment was carried out like experiment A but 1.0 g of phospholipid (egg lecithin E 100, from Lipoid KG, Ludwigshafen) was weighed in addition to the active substance.
(§3) The experiment was carried out like experiment B, but after addition of the buffer solution (pH 1.9) and stirring at 50° C. (1 h), 100 microliters of a dilute aqueous solution of glacial acetic acid (120.1 g/l) were added, and this solution was then titrated to pH 4.6 with sodium hydroxide solution (2 molar).
The pH was adjusted to 4.8.

[2] = Active substance content of solution after 0.2 μm filtration (spectrophotometry); format: physicochemical
Method: A derivative of these bisnaphthalimides [drawing 1] was used to investigate the solubility in aqueous formulations as follows: […]
as §1, with “spectrophotometry. The active substance content in this solution was below 0.1 mg/ml.” for “spectrophotometry.”
as §2, §3

[3] = Physical stability of the solutions (precipitation / flocculation); format: physicochemical
Method: as §1, with “spectrophotometry. The active substance content in this solution was below 0.1 mg/ml.” for “spectrophotometry.”
as §2
The active substance content of the solution which had been titrated to pH 6.8 and sterilized by filtration was 4.0 mg/ml. The solution slowly flocculated out after about 12-24 h, both at room temperature and in a refrigerator.
as §3

[4] = cited from earlier work
[5] = eg. intravenous administration; cited from earlier work
[6] = Comparative Example: like Example 1, experiment C

With `O=C(C(c1ccccc1)c1ccccc1)N1CCN(CC(O)COc2cccc3ncccc23)CC1` (stereo not drawn) the sterile filtration [1] was “It was possible to sterilize the resulting solution by filtration”.
For `O=C1c2cccc3cc([N+](=O)[O-])cc(c23)C(=O)N1CCCCNCCCN1C(=O)c2cccc3cc([N+](=O)[O-])cc(c23)C1=O` [Z], the solubility ([2]; Experiment C: egg lecithin E 100, acetic acid, titrated to pH 4.6, sterile filtration) was 4000 µg/mL (≈ 6.72 mM), the solubility ([2]; egg lecithin e 100 solution, Experiment B (comparative): 1.0 g egg lecithin E 100, titrated to pH 6.8, sterilized by filtration) was 4000 µg/mL (≈ 6.72 mM) and the solubility ([2]; sucrose/phosphoric acid buffer, Experiment A (comparative): no phospholipid, sucrose/phosphoric acid, titrated to pH 6.8, 0.2 μm filtered) was < 100 µg/mL. The “dissolution in acidic buffer” value ([3]; Experiment A: buffer pH about 1.9, 50° C, 1 h, no phospholipid) was “It was possible in this way to dissolve a considerable portion of the active substance”, the precipitation on titration ([3]; Experiment A: no phospholipid, cooled, titrated to pH 6.8) was “Most of the active substance precipitated again” and the “time to flocculation of solution” value ([3]; Experiment B: egg lecithin, pH 6.8, room temperature and refrigerator) was 12 to 24 h. The stability of solution ([3]; Experiment C: egg lecithin, pH 4.6, room temperature and refrigerator) was “stable for weeks without flocculating out”.
In the case of `CCS(=O)(=O)Oc1ccc2c(C)c(C)c(=O)oc2c1` [esuprone], the “filtration through 0.2 μm or 0.45 μm filter” value [1, 6] is given as “could not be filtered either through a 0.2 μm filter or through a 0.45 μm filter”, the “particle size of resulting solution” value [1, 6] is given as “contained large colloidal particles” and the solubility in water ([4]; water) is given as 15 µg/mL (≈ 0.0531 mM).
In the case of `CC(C)[C@@](C#N)(CCCN(C)CCc1ccccc1)c1ccccc1` [levemopamil hydrochloride], the solubility in water ([4]; in words) is listed as “adequately soluble in water” and the “local intolerance on administration” value [5] is listed as “show problems due to local intolerance on administration (eg. vein irritation on intravenous administration)”.
In the case of dolastatin 15, the sterile filtration ([1]; Example 3: active substance 10 mg/ml, phospholipid 100 mg/ml) is given as “It was possible to sterilize the solution by filtration” and the solubility in water ([4]; in words) is given as “low solubility in water”.
